# From the NIST ThermoML archive (doi:10.1021/acs.jced.6b01058)
# Numbers after ± are expanded uncertainties.
# Tests used:
# [1] = wn = mass fraction of the nth substance listed; conditions: 85 kPa, Liquid, Vibrating tube method
# [2] = mn = molality of the nth substance listed, in mol/kg; conditions: 85 kPa, Liquid, Vibrating tube method
# [3] = 85 kPa, Liquid, Vibrating tube method
smiles,measurement,setting,value
CCO [ethanol] + O,mass density,"[1]; 298.15 K, w1 = 0.04",990.13 ± 3.3 kg/m3
same,mass density,"[1]; 298.15 K, w1 = 0.08",983.9 ± 3.1 kg/m3
same,mass density,"[1]; 298.15 K, w1 = 0.16",972.57 ± 3 kg/m3
same,mass density,"[1]; 303.15 K, w1 = 0.04",988.79 ± 3.3 kg/m3
same,mass density,"[1]; 303.15 K, w1 = 0.08",982.43 ± 3.2 kg/m3
same,mass density,"[1]; 303.15 K, w1 = 0.16",970.69 ± 3.1 kg/m3
same,mass density,"[1]; 308.15 K, w1 = 0.04",987.24 ± 3.3 kg/m3
same,mass density,"[1]; 308.15 K, w1 = 0.08",980.77 ± 3.2 kg/m3
same,mass density,"[1]; 308.15 K, w1 = 0.16",968.6 ± 3.2 kg/m3
same,mass density,"[1]; 313.15 K, w1 = 0.04",985.42 ± 3.4 kg/m3
same,mass density,"[1]; 313.15 K, w1 = 0.08",978.85 ± 3.3 kg/m3
same,mass density,"[1]; 313.15 K, w1 = 0.16",966.4 ± 3.3 kg/m3
CO [methanol] + O,mass density,"[1]; 298.15 K, w1 = 0.04",989.97 ± 3.7 kg/m3
same,mass density,"[1]; 298.15 K, w1 = 0.08",982.92 ± 3.6 kg/m3
same,mass density,"[1]; 298.15 K, w1 = 0.16",969.42 ± 3.5 kg/m3
same,mass density,"[1]; 303.15 K, w1 = 0.04",988.62 ± 3.7 kg/m3
same,mass density,"[1]; 303.15 K, w1 = 0.08",981.47 ± 3.6 kg/m3
same,mass density,"[1]; 303.15 K, w1 = 0.16",967.61 ± 3.6 kg/m3
same,mass density,"[1]; 308.15 K, w1 = 0.04",987.03 ± 3.7 kg/m3
same,mass density,"[1]; 308.15 K, w1 = 0.08",979.91 ± 3.6 kg/m3
same,mass density,"[1]; 308.15 K, w1 = 0.16",965.92 ± 3.7 kg/m3
same,mass density,"[1]; 313.15 K, w1 = 0.04",985.22 ± 3.7 kg/m3
same,mass density,"[1]; 313.15 K, w1 = 0.08",978.12 ± 3.7 kg/m3
same,mass density,"[1]; 313.15 K, w1 = 0.16",963.68 ± 3.8 kg/m3
CCCO [propan-1-ol] + O,mass density,"[1]; 298.15 K, w1 = 0.04",990.59 ± 2.8 kg/m3
same,mass density,"[1]; 298.15 K, w1 = 0.08",985.46 ± 3 kg/m3
same,mass density,"[1]; 298.15 K, w1 = 0.16",973.64 ± 3.1 kg/m3
same,mass density,"[1]; 303.15 K, w1 = 0.04",989.14 ± 2.8 kg/m3
same,mass density,"[1]; 303.15 K, w1 = 0.08",983.86 ± 3.1 kg/m3
same,mass density,"[1]; 303.15 K, w1 = 0.16",971.45 ± 3.3 kg/m3
same,mass density,"[1]; 308.15 K, w1 = 0.04",987.49 ± 2.8 kg/m3
same,mass density,"[1]; 308.15 K, w1 = 0.08",982.13 ± 3.3 kg/m3
same,mass density,"[1]; 308.15 K, w1 = 0.16",969.08 ± 3.4 kg/m3
same,mass density,"[1]; 313.15 K, w1 = 0.04",985.62 ± 2.9 kg/m3
same,mass density,"[1]; 313.15 K, w1 = 0.08",980.12 ± 3.3 kg/m3
same,mass density,"[1]; 313.15 K, w1 = 0.16",966.84 ± 3.5 kg/m3
CCCCCCCCCCCC(=O)N(C)CC(=O)[O-].[Na+] [sodium [dodecanoyl(methyl)amino]acetate] + O,mass density,"[2]; 298.15 K, m1 = 0.02",998.13 ± 1 kg/m3
same,mass density,"[2]; 298.15 K, m1 = 0.03",998.42 ± 1 kg/m3
same,mass density,"[2]; 298.15 K, m1 = 0.04",998.73 ± 1 kg/m3
same,mass density,"[2]; 298.15 K, m1 = 0.05",999.03 ± 1 kg/m3
same,mass density,"[2]; 298.15 K, m1 = 0.06",999.43 ± 1 kg/m3
same,mass density,"[2]; 298.15 K, m1 = 0.07",999.67 ± 1 kg/m3
same,mass density,"[2]; 298.15 K, m1 = 0.08",1000.07 ± 1 kg/m3
same,mass density,"[2]; 298.15 K, m1 = 0.09",1000.37 ± 1 kg/m3
same,mass density,"[2]; 303.15 K, m1 = 0.02",996.67 ± 1 kg/m3
same,mass density,"[2]; 303.15 K, m1 = 0.03",996.99 ± 1 kg/m3
same,mass density,"[2]; 303.15 K, m1 = 0.04",997.32 ± 1 kg/m3
same,mass density,"[2]; 303.15 K, m1 = 0.05",997.61 ± 1 kg/m3
same,mass density,"[2]; 303.15 K, m1 = 0.06",997.96 ± 1 kg/m3
same,mass density,"[2]; 303.15 K, m1 = 0.07",998.27 ± 1 kg/m3
same,mass density,"[2]; 303.15 K, m1 = 0.08",998.59 ± 1 kg/m3
same,mass density,"[2]; 303.15 K, m1 = 0.09",998.88 ± 1 kg/m3
same,mass density,"[2]; 308.15 K, m1 = 0.02",995.04 ± 1 kg/m3
same,mass density,"[2]; 308.15 K, m1 = 0.03",995.33 ± 1 kg/m3
same,mass density,"[2]; 308.15 K, m1 = 0.04",995.67 ± 1 kg/m3
same,mass density,"[2]; 308.15 K, m1 = 0.05",995.93 ± 1 kg/m3
same,mass density,"[2]; 308.15 K, m1 = 0.06",996.27 ± 1 kg/m3
same,mass density,"[2]; 308.15 K, m1 = 0.07",996.56 ± 1 kg/m3
same,mass density,"[2]; 308.15 K, m1 = 0.08",996.88 ± 1 kg/m3
same,mass density,"[2]; 308.15 K, m1 = 0.09",997.14 ± 1 kg/m3
same,mass density,"[2]; 313.15 K, m1 = 0.02",993.18 ± 1 kg/m3
same,mass density,"[2]; 313.15 K, m1 = 0.03",993.48 ± 1 kg/m3
same,mass density,"[2]; 313.15 K, m1 = 0.04",993.8 ± 1 kg/m3
same,mass density,"[2]; 313.15 K, m1 = 0.05",994.06 ± 1 kg/m3
same,mass density,"[2]; 313.15 K, m1 = 0.06",994.41 ± 1 kg/m3
same,mass density,"[2]; 313.15 K, m1 = 0.07",994.7 ± 1 kg/m3
same,mass density,"[2]; 313.15 K, m1 = 0.08",994.95 ± 1 kg/m3
same,mass density,"[2]; 313.15 K, m1 = 0.09",995.27 ± 1 kg/m3
O [water],mass density,[3]; 298.15 K,997.29 ± 1 kg/m3
same,mass density,[3]; 303.15 K,995.9 ± 1 kg/m3
same,mass density,[3]; 308.15 K,994.27 ± 1 kg/m3
same,mass density,[3]; 313.15 K,992.46 ± 1 kg/m3
